The results in this text go back to patent US6596309B2, “Stable pharmaceutical dosage form for paroxetin anhydrate” (BASF Aktiengesellschaft, priority 1999, dated 2003).

This data set is described as follows: Check for conversion of the anhydrate to the hemihydrate in soft gelatin capsules (infrared spectroscopy or DSC). Conditions: paroxetin anhydrate incorporated into soft gelatin capsules; lipophilic carrier silicone oil. In kind it is physicochemical. The source says: The incorporation of paroxetin anhydrate into soft gelatin capsules was surprising because soft gelatin contains very large amounts of water during the encapsulation process. […] However, the use of glycerol in the preparation of the capsule coat should be avoided.
A test for absence of the hemihydrate can be performed very simply by infrared spectroscopy or differential scanning calorimetry (DSC), as described by P.C. Baxter et al. in the International Journal of Pharmaceutics, 42 (1988), pages 135 to 143.

In the case of `Fc1ccc([C@@H]2CCNC[C@H]2COc2ccc3c(c2)OCO3)cc1` (relative stereo) [paroxetin anhydrate, (—)-trans-4-(4′-fluorophenyl)-3-(3′,4′-methylenedioxyphenoxymethyl)-piperidine], the “conversion to the hemihydrate” value is listed as “did not occur”.
